This data set deals with tumour subjects planned to receive highly emetogenic chemotherapy for the first time. Description: Example 4: active-controlled dose-finding study of compound 1 injection for the prevention of chemotherapy-induced nausea and vomiting (CINV). In kind it is in vivo, patients. Here is the method:
Study period: Treatment duration: Within 120 h after the first administration of highly emetogenic chemotherapeutic agents; Follow-up duration: Day 10 ± 1 after the first administration of highly emetogenic chemotherapeutic agents.
Protocol: This study was a multicentre, randomised, double-blind, active-controlled study. About 180 tumour subjects planned to receive highly emetogenic chemotherapy for the first time were randomised in a 1 : 1 : 1 ratio to three groups, with 60 subjects per group. Pre-chemotherapy study drug administration was completed 30 ± 10 min before the start of administration of the highly emetogenic chemotherapeutic agents. The dosing regimen was as follows: administration was performed in the following order: • 1) Compound 1 (placebo)/compound 1: A single dose was administered 30 ± 10 min before the start of administration of highly emetogenic chemotherapeutic agents, via intravenous bolus injection, with an intravenous bolus injection time of not less than 30 s. • 2) Dolasetron mesylate injection/dolasetron mesylate injection matching placebo: After the administration of compound 1/compound 1 (placebo), 5 ml (100 mg) of dolasetron mesylate injection/matching placebo was administered via intravenous bolus injection without dilution, and the infusion line was flushed with normal saline before and after administration. […]

Regarding `CC(=O)N1CC2(CCN(C(=O)[C@@H](CCCCN)NC(=O)[C@@H](CC(C)C)NC(=O)[C@@H](Cc3ccccc3)NC(=O)[C@H](N)Cc3ccccc3)CC2)C1` [Compound 1, (2R)-N-[(1R)-1-(2-acetyl-2,7-diazaspiro[3.5]nonane-7-carbonyl)-5-amino-pentyl]-2-[[(2R)-2-[[(2R)-2-amino-3-phenyl-propionyl]amino]-3-phenylpropionyl]amino]-4-methyl-pentanamide], for the setting “Example 4”, the overall safety entry is “good overall safety”. Besides, the “effect on CINV” value (Example 4, with dolasetron/aprepitant/dexamethasone background regimens) is recorded as “preventive and/or ameliorating effect on CINV”.

(Values after patent EP4792822A1, “USE OF PEPTIDE AMIDE COMPOUND IN PREPARATION OF DRUG FOR […] AND VOMITING” (Haisco Pharmaceutical Group Co., Ltd., priority 2023, dated 2025).)
